Test: xn = mol fraction of the nth substance listed
Details: 101 kPa

CN(CCO)CCO + CCCCCC[n+]1ccn(C)c1.F[B-](F)(F)F
x1 = 1
Details	viscosity [mPa·s]
318.15 K	27.5
323.15 K	22

CCCCCC[n+]1ccn(C)c1.F[B-](F)(F)F + CN(CCO)CCO
viscosity [mPa·s]
Details	x2 = 0	x2 = 0.097	x2 = 0.192	x2 = 0.2909	x2 = 0.3916	x2 = 0.4949	x2 = 0.5936	x2 = 0.6935	x2 = 0.7928	x2 = 0.8824
303.15 K	85	81.7	78.6	75.6	–	–	67.1	64.6	–	60.1
308.15 K	69	65.9	63.1	60.3	57.6	55.1	52.7	50.5	48.3	46.5
313.15 K	55	52.5	50.2	48	45.8	43.7	–	40	38.3	–
318.15 K	43	41.1	39.3	37.6	35.9	–	32.8	31.4	30.1	28.9
323.15 K	36	34.2	32.6	31	29.5	28	26.7	25.5	24.3	23.3
